System: 266295-075-R-J1-PDC spheroid viability
Assay: Anticancer human tumor 266295-075-R-J1-PDC patient-derived head and neck squamous carcinoma cell line growth inhibition [POLQ]
Conditions: spheroids with HUVEC and MSC; for IC50: curve of first compound; for viability, T/C: stronger effect = lower value
Outline: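 Growth inhibition in 3D: complex spheroids (tumor PDC, HUVEC, MSC) treated with POLQ inhibitor combinations; where Cmax unknown, highest tested concentration 10 microM, except SN-38 at 1 microM.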

[1] = second compound 0.0316 µM, first compound 0.0316 µM
[2] = second compound 0.0316 µM, first compound 0.1 µM
[3] = second compound 0.0316 µM, first compound 0.316 µM
[4] = second compound 0.0316 µM, first compound 1 µM
[5] = second compound 0.0316 µM, first compound 3.16 µM
[6] = second compound 0.0316 µM, first compound 10 µM
[7] = second compound 0.1 µM, first compound 0.0316 µM
[8] = second compound 0.1 µM, first compound 0.1 µM
[9] = second compound 0.1 µM, first compound 0.316 µM
[10] = second compound 0.1 µM, first compound 1 µM
[11] = second compound 0.1 µM, first compound 3.16 µM
[12] = second compound 0.1 µM, first compound 10 µM
[13] = second compound 0.316 µM, first compound 0.0316 µM
[14] = second compound 0.316 µM, first compound 0.1 µM
[15] = second compound 0.316 µM, first compound 0.316 µM
[16] = second compound 0.316 µM, first compound 1 µM
[17] = second compound 0.316 µM, first compound 3.16 µM
[18] = second compound 0.316 µM, first compound 10 µM
[19] = second compound 1 µM, first compound 0.0316 µM
[20] = second compound 1 µM, first compound 0.1 µM
[21] = second compound 1 µM, first compound 0.316 µM
[22] = second compound 1 µM, first compound 1 µM
[23] = second compound 1 µM, first compound 3.16 µM
[24] = second compound 1 µM, first compound 10 µM
[25] = second compound 3.16 µM, first compound 0.0316 µM
[26] = second compound 3.16 µM, first compound 0.1 µM
[27] = second compound 3.16 µM, first compound 0.316 µM
[28] = second compound 3.16 µM, first compound 1 µM
[29] = second compound 3.16 µM, first compound 3.16 µM
[30] = second compound 3.16 µM, first compound 10 µM
[31] = second compound 10 µM, first compound 0.0316 µM
[32] = second compound 10 µM, first compound 0.1 µM
[33] = second compound 10 µM, first compound 0.316 µM
[34] = second compound 10 µM, first compound 1 µM
[35] = second compound 10 µM, first compound 3.16 µM
[36] = second compound 10 µM, first compound 10 µM
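Also: spheroids exposed to compounds for seven days before readout.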

Structure (SMILES): CCCS(=O)(=O)Nc1ccc(F)c(C(=O)c2c[nH]c3ncc(-c4ccc(Cl)cc4)cc23)c1F + Nc1ccc(C#CCN(C(=O)Cc2ncc(C(F)(F)F)cc2C(F)(F)F)c2ccc(F)cc2)nn1
- IC50 (second compound 0.0316 µM): > 10 µM
- IC50 (second compound 0.1 µM): > 10 µM
- IC50 (second compound 0.316 µM): > 10 µM
- IC50 (second compound 1 µM): > 10 µM
- IC50 (second compound 3.16 µM): > 10 µM
- IC50 (second compound 10 µM): > 10 µM
- viability, T/C [1]: 97.9%
- viability, T/C [2]: 115%
- viability, T/C [3]: 115%
- viability, T/C [4]: 102%
- viability, T/C [5]: 158%
- viability, T/C [6]: 160%
- viability, T/C [7]: 101%
- viability, T/C [8]: 105%
- viability, T/C [9]: 99.2%
- viability, T/C [10]: 116%
- viability, T/C [11]: 156%
- viability, T/C [12]: 145%
- viability, T/C [13]: 102%
- viability, T/C [14]: 103%
- viability, T/C [15]: 82.3%
- viability, T/C [16]: 105%
- viability, T/C [17]: 143%
- viability, T/C [18]: 131%
- viability, T/C [19]: 122%
- viability, T/C [20]: 92.5%
- viability, T/C [21]: 115%
- viability, T/C [22]: 93.8%
- viability, T/C [23]: 146%
- viability, T/C [24]: 145%
- viability, T/C [25]: 84.8%
- viability, T/C [26]: 135%
- viability, T/C [27]: 121%
- viability, T/C [28]: 109%
- viability, T/C [29]: 142%
- viability, T/C [30]: 160%
- viability, T/C [31]: 119%
- viability, T/C [32]: 104%
- viability, T/C [33]: 104%
- viability, T/C [34]: 119%
- viability, T/C [35]: 143%
- viability, T/C [36]: 171%

Structure (SMILES): CC1COCCN1c1cc(C2(S(C)(=N)=O)CC2)nc(-c2ccnc3[nH]ccc23)n1 (centres undefined) + Nc1ccc(C#CCN(C(=O)Cc2ncc(C(F)(F)F)cc2C(F)(F)F)c2ccc(F)cc2)nn1
- IC50 (second compound 0.0316 µM): > 10 µM
- IC50 (second compound 0.1 µM): > 10 µM
- IC50 (second compound 0.316 µM): 8.58 µM
- IC50 (second compound 1 µM): 9.41 µM
- IC50 (second compound 3.16 µM): > 10 µM
- IC50 (second compound 10 µM): > 10 µM
- viability, T/C [1]: 110%
- viability, T/C [2]: 93.3%
- viability, T/C [3]: 83.4%
- viability, T/C [4]: 75.5%
- viability, T/C [5]: 67.5%
- viability, T/C [6]: 63%
- viability, T/C [7]: 102%
- viability, T/C [8]: 116%
- viability, T/C [9]: 92%
- viability, T/C [10]: 93.9%
- viability, T/C [11]: 80.2%
- viability, T/C [12]: 57.2%
- viability, T/C [13]: 81.9%
- viability, T/C [14]: 102%
- viability, T/C [15]: 92.5%
- viability, T/C [16]: 79%
- viability, T/C [17]: 78.4%
- viability, T/C [18]: 45.6%
- viability, T/C [19]: 97.8%
- viability, T/C [20]: 109%
- viability, T/C [21]: 96.6%
- viability, T/C [22]: 87.6%
- viability, T/C [23]: 67.6%
- viability, T/C [24]: 48.9%
- viability, T/C [25]: 89.9%
- viability, T/C [26]: 141%
- viability, T/C [27]: 100%
- viability, T/C [28]: 92.8%
- viability, T/C [29]: 69.4%
- viability, T/C [30]: 57.3%
- viability, T/C [31]: 95.4%
- viability, T/C [32]: 99%
- viability, T/C [33]: 95.5%
- viability, T/C [34]: 92.7%
- viability, T/C [35]: 70.6%
- viability, T/C [36]: 62.9%
